Where two headings read alike, the source gives them in different places.
Experiments:
[1] = system: LN229 cells; assay: Cell viability assay (CellTiter-Glo), LN229; type: cell-based; settings: Homo sapiens, LN-229; Cell Line: LN229; read-out: LC50 (μM ± SD)
Protocol: (§1) In vitro activity of QBS10072S was assessed using a modified clonogenic cell viability assay in 96-well clear-bottom plates. For the LLC-PK1 inducible LAT1-expressing cell line, 1000 cells/well were plated and cells were treated with either butyrate alone (non-induced) or with both butyrate and doxycycline (induced) as described above. For GBM cell lines, 2000 cells/well were plated. On day 2 (GBM) or day 3 (LLC-PK1) after original plating, cells were washed twice with PBS and incubated with 50 μL of various concentrations of QBS10072S in PBS in at least quadruplicate. After 30 minutes at 37°C, 200 μL of growth medium was added to each well. Clonal populations were allowed to grow until the control wells (mock treatment) were near confluence (7 to 10 days). At this point, 170 μL media were removed and 60 μL CellTiter-Glo® (Promega, Madison, WI) were added to each well. Plates were placed on an orbital shaker for three minutes to lyse the cells and then incubated for an additional 10 minutes at RT to stabilize the luminescent signal. Luminescence was recorded using an EnSpire® Multimode Plate Reader (Perkin Elmer). Background (luminescence from wells incubated with 100 μM melphalan or lomustine) was subtracted and data were normalized to the control. EC50s were determined by non-linear regression using GraphPad Prism.

[2] = system: LLC-PK1 inducible LAT1-expressing cell line; assay: Modified clonogenic cell viability assay (CellTiter-Glo), LLC-PK1 inducible LAT1-expressing cells; type: cell-based; settings: for EC50: Sus scrofa, read-out: EC50, suppression of viability
Protocol: as §1

[3] = system: 42MGBA cells; assay: Cell viability assay (CellTiter-Glo), 42MGBA; type: cell-based; settings: Homo sapiens; Cell Line: 42M6BA; read-out: LC50 (μM ± SD)
Protocol: as §1

[4] = Microscopic evaluation of brain tissue after dosing rodents; type: in vivo; settings: rodents dosed with high levels
[5] = system: phosphorylation of H2AX in normal human astrocytes; assay: Phosphorylation of γ-H2AX assay (immunoblot), normal human astrocytes; type: cell-based; settings: NHAs, basal LAT1 undetectable, 16 hours
Protocol: (§2) U251 or normal human astrocyte cells were plated in six-well plates and incubated with various concentrations of QBS10072S for 16 hours. Proteins were extracted from cells using cell lysis buffer (Cell Signaling Technologies, Danvers, MA) supplemented with proteinase and a phosSTOP phosphatase inhibitor cocktail (Sigma-Aldrich, St. Louis, MO). Proteins were separated by SDS-PAGE and transferred onto polyvinylidene difluoride membranes, which were then probed with primary antibodies followed by horseradish peroxidase-conjugated secondary antibody, and visualized by ECL (Thermo-Fischer, S. San Francisco, CA). Antibodies specific for γH2AX (#2577), LAT1 (#5347), and beta-actin (#4970) were obtained from Cell Signaling Technologies.

[6] = system: phosphorylation of H2AX in U251 cells; assay: Phosphorylation of γ-H2AX assay (immunoblot), U251; type: cell-based, human; settings: U251, 16 hours
Protocol: as §2

[7] = molecular target: T1, hLAT2 (Homo sapiens, UniProt Q9UHI5); assay: Substrate transport inhibition, [3H]-leucine uptake in LLC-PK1 cells expressing hLAT2; type: cell-based; settings: [3H]-leucine, LLC-PK1 LAT2-expressing cells, 15 minutes at room temperature; read-out: IC50, inhibition of substrate transport (LAT2)
T1 construct: host or cells: LLC-PK1 (tetracycline-inducible, Invitrogen Gateway pT-REx System)
T1 sequence (Q9UHI5 1-535): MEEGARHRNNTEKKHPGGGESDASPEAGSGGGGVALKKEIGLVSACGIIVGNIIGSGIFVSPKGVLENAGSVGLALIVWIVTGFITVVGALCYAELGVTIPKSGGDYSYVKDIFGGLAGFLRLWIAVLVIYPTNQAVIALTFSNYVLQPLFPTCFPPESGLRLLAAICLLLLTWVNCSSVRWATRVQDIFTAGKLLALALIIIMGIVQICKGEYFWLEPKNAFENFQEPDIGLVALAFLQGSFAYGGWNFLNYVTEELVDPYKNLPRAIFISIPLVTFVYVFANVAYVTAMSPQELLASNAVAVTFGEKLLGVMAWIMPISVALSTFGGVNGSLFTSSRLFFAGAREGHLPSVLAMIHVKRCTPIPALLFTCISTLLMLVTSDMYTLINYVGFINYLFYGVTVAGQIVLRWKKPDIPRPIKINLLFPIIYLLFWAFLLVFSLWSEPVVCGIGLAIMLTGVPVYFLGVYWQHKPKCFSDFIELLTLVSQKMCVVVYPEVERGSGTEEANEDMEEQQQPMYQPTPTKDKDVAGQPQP
T1 sequence (P08195 1-529 partner): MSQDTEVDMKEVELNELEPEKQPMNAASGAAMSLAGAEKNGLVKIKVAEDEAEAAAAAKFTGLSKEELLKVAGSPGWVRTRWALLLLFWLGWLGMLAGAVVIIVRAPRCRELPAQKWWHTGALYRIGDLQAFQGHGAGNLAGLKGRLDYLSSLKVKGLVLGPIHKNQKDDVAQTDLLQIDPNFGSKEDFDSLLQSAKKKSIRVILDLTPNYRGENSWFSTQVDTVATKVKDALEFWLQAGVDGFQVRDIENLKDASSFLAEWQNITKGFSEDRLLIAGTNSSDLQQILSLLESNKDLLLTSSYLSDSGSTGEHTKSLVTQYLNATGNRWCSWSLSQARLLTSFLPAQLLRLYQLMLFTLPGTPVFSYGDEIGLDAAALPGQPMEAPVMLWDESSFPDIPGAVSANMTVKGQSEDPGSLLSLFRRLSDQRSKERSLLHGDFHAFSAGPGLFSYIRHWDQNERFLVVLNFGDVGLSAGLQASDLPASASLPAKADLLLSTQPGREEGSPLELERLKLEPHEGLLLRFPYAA
Protocol: Substrate transport inhibition studies were conducted with LLC-PK1 cells inducibly expressing either hLAT1 or hLAT2. Cells were plated in growth media with 1 μg/mL doxycycline at 30,000 cells/well in 96-well plates. Sixteen hours after plating, cells were treated with butyrate at a final concentration of 5 mM. The following day, cells were washed with PBS and incubated in the presence or absence of various concentrations of QBS10072S with 30,000 cpm/well of either [3H]-gabapentin (LAT1) or [3H]-leucine (LAT2) in PBS for 15 minutes at room temperature. The non-specific cell-bound activity was determined by the addition of 5 mM unlabeled gabapentin (LAT1) or leucine (LAT2). Unincorporated radioactivity was removed, and cells were washed three times with ice-cold PBS. Cells were lysed by adding scintillation fluid to each well, and cell-associated radioactivity was determined via scintillation counting using a multichannel 96-well plate reader (MicroBeta Trilux, Perkin Elmer, Waltham, MA). Data were expressed as the percent of specific radioactivity uptake in wells with no compound added. LC50s were determined by non-linear curve-fitting using GraphPad Prism (San Diego, CA).

With `Cc1ccc(N(CCCl)CCCl)cc1C[C@H](N)CC(=O)O` [QBS10072S, (+)-(3S)-amino-4-[5-[bis(2-chloroethyl)amino]-2-methyl-phenyl]butanoic acid] as the molecule, how does the CC50 [1] read?
Its CC50 is 16 ± 2 µM.

And the EC50 ([2]; LLC-PK1, induced, high LAT1 expressing cells)?
The EC50 was 1 µM.

What about the EC50 ([2]; LLC-PK1, non-induced cells, low endogenous LAT1) of the same molecule?
Its EC50 is 5.5 µM.

What about the “potency induced vs. non-induced cells” value ([2]; high LAT1 vs. non-induced) of the same molecule?
Its value is 5.5 times.

What about the CC50 [3] of the same molecule?
The CC50 was 40 ± 10 µM.

And the “alterations of the BBB, microscopic evaluation of brain tissue” value [4]?
Its value is “no alterations of the BBB”.

What about the “DDR pathway activation (phospho-H2AX)” value [5] of the same molecule?
Its value is “significantly lower DDR pathway activation”.

What about the “phosphorylation of H2AX” value [6] of the same molecule?
The value was “dose-dependent phosphorylation of H2AX”.

What about the IC50 [7] of the same molecule?
The IC50 was 1100 µM.

From publication PMC8482806, “A Novel Blood-Brain Barrier-Permeable Chemotherapeutic Agent for the Treatment of Glioblastoma” (Cureus, 2021)
